# Source: patent US5541175A, “Cephalosporin antibiotics” (Lucky, Ltd., priority 1993, dated 1996)
# How the values were obtained:
# [1] = tested on: Acinetobacter calcoaceticus 15473A; assay: Minimum inhibitory concentration (agar 2-fold dilution); type: cell-based; conditions: A. calcoaceticus 15473A, Muller-Hinton agar, 37° C., 20 hours, read-out: Minimum Inhibitory Concentration
# Description: (§1) The minimum inhibitory concentration was determined by diluting the test compounds according to 2-fold dilution, suspending them in Muller-Hinton agar medium, inoculating 2 μl of the suspension containing the test strains having 10^7 CFU (Colony Forming Unit) per 1 ml into the medium and then culturing the test strains at 37° C. for 20 hours.
# [2] = tested on: Citrobacter diversus 2046E; assay: as above; type: cell-based; conditions: Citrobacter koseri; C. diversus 2046E; Muller-Hinton agar, 37° C., 20 hours; read-out: Minimum Inhibitory Concentration
# Description: as §1
# [3] = tested on: Enterobacter cloacae IND + VE 1194E; assay: as above; type: cell-based; conditions: E. cloacae IND + VE 1194E, Muller-Hinton agar, 37° C., 20 hours, read-out: Minimum Inhibitory Concentration
# Description: as §1
# Enterobacter cloacae P99 = assay: as above; type: cell-based; conditions: P99, 20 h, read-out: Minimum Inhibitory Concentration
# Description: as §1
# Escherichia coli 10536 = assay: as above; type: cell-based; conditions: Escherichia coli; E. coli 10536; Muller-Hinton agar, 37° C., 20 hours; read-out: Minimum Inhibitory Concentration
# Description: as §1
# Escherichia coli 3190Y = assay: as above; type: cell-based; conditions: E. coli 3190Y, Muller-Hinton agar, 37° C., 20 hours, read-out: Minimum Inhibitory Concentration
# Description: as §1
# Escherichia coli 851E = assay: as above; type: cell-based; conditions: E. coli 851E, Muller-Hinton agar, 37° C., 20 hours
# Description: as §1
# [4] = tested on: Escherichia coli TEM1 1193E; assay: as above; type: cell-based; conditions: TEM11193E, 20 h, read-out: Minimum Inhibitory Concentration
# Description: as §1
# [5] = tested on: Escherichia coli TEM3 3455E; assay: as above; type: cell-based; conditions: TEM33455E, 20 h, read-out: Minimum Inhibitory Concentration
# Description: as §1
# [6] = tested on: Escherichia coli TEM5 3739E; assay: as above; type: cell-based; conditions: TEM53739E, 20 h, read-out: Minimum Inhibitory Concentration
# Description: as §1
# [7] = tested on: Escherichia coli TEM7 3457E; assay: as above; type: cell-based; conditions: TEM73457E, 20 h, read-out: Minimum Inhibitory Concentration
# Description: as §1
# [8] = tested on: Escherichia coli TEM9 2639E; assay: as above; type: cell-based; conditions: TEM92639E, 20 h, read-out: Minimum Inhibitory Concentration
# Description: as §1
# [9] = tested on: Klebsiella aerogenes K1 + 1082E; assay: as above; type: cell-based; conditions: 20 h, read-out: Minimum Inhibitory Concentration
# Description: as §1
# [10] = tested on: Klebsiella aerogenes SHV-1 1976E; assay: as above; type: cell-based; conditions: SHV11976E, K. aerogenes SHV-1 1976E, Muller-Hinton agar, 37° C., 20 hours
# Description: as §1
# Proteus vulgaris 6059A = assay: as above; type: cell-based; conditions: P. vulgaris 6059A, Muller-Hinton agar, 37° C., 20 hours, read-out: Minimum Inhibitory Concentration
# Description: as §1
# [11] = tested on: Pseudomonas aeruginosa 10145; assay: as above; type: cell-based; conditions: Pseudomonas aeruginosa; P. aeruginosa 10145; Muller-Hinton agar, 37° C., 20 hours; read-out: Minimum Inhibitory Concentration
# Description: as §1
# [12] = tested on: Pseudomonas aeruginosa 1912E; assay: as above; type: cell-based; conditions: P. aeruginosa 1912E, Muller-Hinton agar, 37° C., 20 hours, read-out: Minimum Inhibitory Concentration
# Description: as §1
# [13] = tested on: Pseudomonas aeruginosa 6065; assay: as above; type: cell-based; conditions: Pseudomonas aeruginosa; P. aeruginosa 6065; Muller-Hinton agar, 37° C., 20 hours; read-out: Minimum Inhibitory Concentration
# Description: as §1
# [14] = tested on: Salmonella typhimurium 14028A; assay: as above; type: cell-based; conditions: Salmonella enterica; S. typhimurium 14028A; Muller-Hinton agar, 37° C., 20 hours; read-out: Minimum Inhibitory Concentration
# Description: as §1
# [15] = tested on: Serratia marcescens 1826E; assay: as above; type: cell-based; conditions: S. marcescens 1826E, Muller-Hinton agar, 37° C., 20 hours, read-out: Minimum Inhibitory Concentration
# Description: as §1
# [16] = tested on: Staphylococcus aureus 241; assay: as above; type: cell-based; conditions: Staphylococcus aureus; S. aureus 241; Muller-Hinton agar, 37° C., 20 hours; read-out: Minimum Inhibitory Concentration
# Description: as §1
# [17] = tested on: Staphylococcus aureus 6538P; assay: as above; type: cell-based; conditions: S. aureus 6538P, Muller-Hinton agar, 37° C., 20 hours, read-out: Minimum Inhibitory Concentration
# Description: as §1
# Staphylococcus aureus 77 = assay: as above; type: cell-based; conditions: Staphylococcus aureus; S. aureus 77; Muller-Hinton agar, 37° C., 20 hours; read-out: Minimum Inhibitory Concentration
# Description: as §1
# [18] = tested on: Staphylococcus aureus epidermidis 887E; assay: as above; type: cell-based; conditions: S. aureus epidermidis 887E, Muller-Hinton agar, 37° C., 20 hours, read-out: Minimum Inhibitory Concentration
# Description: as §1
# [19] = tested on: Staphylococcus aureus giorgio; assay: as above; type: cell-based; conditions: S. aureus giorgio, Muller-Hinton agar, 37° C., 20 hours, read-out: Minimum Inhibitory Concentration
# Description: as §1
# [20] = tested on: Streptococcus faecalis 29212A; assay: as above; type: cell-based; conditions: Enterococcus faecalis; S. faecalis 29212A; Muller-Hinton agar, 37° C., 20 hours; read-out: Minimum Inhibitory Concentration
# Description: as §1
# [21] = Pharmacokinetic properties in rats (blood concentration by agar well biological assay); parameters: species or system SD rats (male); conditions: rat, in vivo, iv, 20 mg/kg
# Description: The pharmacokinetic properties of the compound of the present invention were determined using SD rats (.male.) weighing 230±10 g. Specifically,the test samples were injected into femoral vein in an amount of 20 mg/kg to 4 to 5 test animals. Blood was taken from femoral vein 1, 2.5, 5, 10, 20, 40, 60, 120 and 180 minutes after administration and then subjected to a biological assay using agar well method to measure the blood concentration.
compound,measurement,setting,value
"Nc1nc(/C(=N/O[C@H](C(=O)O)c2ccc(O)c(O)c2)C(=O)N[C@@H]2C(=O)N3C(C(=O)[O-])=C(/C=C/C[n+]4cnc(N)c(N)c4N)CS[C@H]23)cs1 [Compound I-5a, 7-[(Z)-2-(2-aminothiazol-4-yl)-2-(α-carboxy-3,4-dihydroxybenzyloxyimino)acetamido]-3-[(E)-3-(4,5,6-triaminopyrimidinium-1-yl)-1-propen-1-yl]-3-cephem-4-carboxylate]",MIC,[1],0.5 µg/mL
same,MIC,[2],0.13 µg/mL
same,MIC,[3],1 µg/mL
same,MIC,Enterobacter cloacae P99,8 µg/mL
same,MIC,Escherichia coli 10536,0.016 µg/mL
same,MIC,Escherichia coli 3190Y,0.063 µg/mL
same,MIC,Escherichia coli 851E,0.063 µg/mL
same,MIC,[4],0.063 µg/mL
same,MIC,[5],0.063 µg/mL
same,MIC,[6],0.5 µg/mL
same,MIC,[7],0.031 µg/mL
same,MIC,[8],1 µg/mL
same,MIC,[9],0.063 µg/mL
same,MIC,[10],0.5 µg/mL
same,MIC,Proteus vulgaris 6059A,0.063 µg/mL
same,MIC,[11],0.25 µg/mL
same,MIC,[12],0.5 µg/mL
same,MIC,[13],4 µg/mL
same,MIC,[14],0.03 µg/mL
same,MIC,[15],0.5 µg/mL
same,MIC,[16],128 µg/mL
same,MIC,[17],0.5 µg/mL
same,MIC,Staphylococcus aureus 77,2 µg/mL
same,MIC,[18],64 µg/mL
same,MIC,[19],0.25 µg/mL
same,MIC,[20],4 µg/mL
same,AUC,[21],49600 ng·h/mL
same,half-life,[21],41 min
